Our source for the EC50 values is ChEMBL document CHEMBL1147343, “Isolation and identification of an antifungal naphthopyran derivative from Rhinacanthus nasutus” (1993).

In brackets after ≈: the same amount, converted by molar mass.

This test has as its system Pyricularia oryzae. Put plainly: Antifungal activity against Pyricularia oryzae assessed as inhibition of spore germination. Format: functional. To be noted: read-out: ED50 (the source's name).

`CC1(C)COC2=C(C1)C(=O)c1ccccc1C2=O`: the EC50 was 0.4 µg/mL (≈ 1.65 µM).
